The assay deals with C3H cells. Nature of the assay: Rodlet formation. It is filed as cell-based, mouse. The conditions noted are these: 10-20 μM, 1 h.

`CC1=C[C@@H]2/C=C(\C)CC[C@H](O)[C@H](O)/C=C/C(=O)[C@]23C(=O)N[C@@H](CC(C)C)[C@@H]3[C@@H]1C` [AsD, Aspochalasin D]: the “Number of rodlets within a single cell” value is 1-127.

The values above are taken from paper PMC2112011 (The Journal of Cell Biology, 1982).
